Results taken from patent US8778631B2, “Mono charging system for selectively introducing non-native amino acids into proteins using an in vitro protein synthesis system” (priority 2009, dated 2014).

Biological target: T1, PheRS (Escherichia coli, UniProt P08312)
T1 construct: endogenous in cells; host or cells: cell-free extract (lysate) of E. coli strain KGK10
Assay: Inhibition of the rate of cell-free synthesis of turboGFP by Phe-SA
Format: biochemical, E. coli
Conditions: cell-free synthesis of turboGFPY50TAG with pAF-tRNACUA^Phe
Protocol: A modified “run-off procedure” was used to prepare the cell-free extract. Fermentation volume to generate sufficient cell-free extract was typically 2.5× the desired cell-free reaction volume. To inactivate the reducing activity of the cell extract, iodoacetamide (IAM) at various concentrations was added as previously described (Yang, Kanter et al. (2004) Biotechnol Prog, 20, 1689-96). Gene expression was under the control of the T7 promoter. In order to facilitate translation initiation, genes were synthesized (DNA 2.0, Menlo Park, Calif.) with synonymous codons at the 5′ end of the gene with ATG start codon (N-terminal methionine residue) optimized for mRNA instability as measured by mRNA ΔGfold in the −6 to +37 positions (Kudla, Murray et al. (2009) Science, 324, 255-258) and rare codons were replaced.
Cell-free reactions were run at 30° C. containing 8 mM magnesium glutamate, 10 mM ammonium glutamate, 130 mM potassium glutamate, 35 mM sodium pyruvate, 1.2 mM AMP, 0.86 mM each of GMP, UMP, & CMP, 2 mM amino acids (1 mM for tyrosine), 4 mM sodium oxalate, 1 mM putrescine, 1.5 mM spermidine, 15 mM potassium phosphate, 100 nM T7 RNA polymerase, 2-50 nM DNA template(s), 1-10 μM E. coli DsbC, and 24-30% (v/v) IAM-treated cell-free extract.

T1 sequence (P07395 whole entry): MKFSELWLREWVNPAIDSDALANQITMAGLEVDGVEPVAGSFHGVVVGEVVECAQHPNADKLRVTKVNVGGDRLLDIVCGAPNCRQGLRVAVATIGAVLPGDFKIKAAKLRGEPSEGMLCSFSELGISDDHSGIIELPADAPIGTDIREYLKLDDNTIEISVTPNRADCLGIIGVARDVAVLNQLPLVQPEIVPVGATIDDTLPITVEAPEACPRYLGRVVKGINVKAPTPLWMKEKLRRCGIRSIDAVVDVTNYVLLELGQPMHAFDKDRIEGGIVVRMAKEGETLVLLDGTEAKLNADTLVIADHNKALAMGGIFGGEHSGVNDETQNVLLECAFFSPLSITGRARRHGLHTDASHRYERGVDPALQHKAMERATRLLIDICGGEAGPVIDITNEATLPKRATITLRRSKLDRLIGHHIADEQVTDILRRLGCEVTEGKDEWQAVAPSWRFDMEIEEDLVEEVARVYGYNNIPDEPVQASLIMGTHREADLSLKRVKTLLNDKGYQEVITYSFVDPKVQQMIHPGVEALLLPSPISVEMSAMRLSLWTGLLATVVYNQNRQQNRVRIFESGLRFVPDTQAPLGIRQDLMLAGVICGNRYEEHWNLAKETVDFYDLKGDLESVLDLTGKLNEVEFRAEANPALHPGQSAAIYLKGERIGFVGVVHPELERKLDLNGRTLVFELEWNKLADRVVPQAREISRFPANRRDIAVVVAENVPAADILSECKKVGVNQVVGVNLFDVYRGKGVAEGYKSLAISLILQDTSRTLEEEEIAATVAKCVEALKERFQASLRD
T1 sequence (P08312 whole entry): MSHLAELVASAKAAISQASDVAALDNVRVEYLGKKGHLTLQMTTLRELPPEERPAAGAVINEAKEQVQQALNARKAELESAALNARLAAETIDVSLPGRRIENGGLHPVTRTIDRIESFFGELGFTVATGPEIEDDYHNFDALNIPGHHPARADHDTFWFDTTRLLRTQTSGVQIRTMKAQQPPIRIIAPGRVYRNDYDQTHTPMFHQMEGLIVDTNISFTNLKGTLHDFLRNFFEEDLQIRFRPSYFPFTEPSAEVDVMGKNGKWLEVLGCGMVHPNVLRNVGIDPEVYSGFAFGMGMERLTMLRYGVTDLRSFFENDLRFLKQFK

Nc1ncnc2c1ncn2[C@@H]1O[C@H](COS(=O)(=O)NC(=O)[C@@H](N)Cc2ccccc2)[C@@H](O)[C@H]1O [Phe-SA, 5′-O—[N-(Phenylalanyl)sulfamoyl]adenosine]
time after which the inhibitor begins to lose its effectiveness: 7 to 8 h
